The assay deals with Y1 mouse adrenal tumor cells. The assay can be described thus: dbcAMP-induced 20á-hydroxyprogesterone synthesis in Y1 cells (RIA). It counts as cell-based. The protocol:
Culture media were then changed and cells were stimulated with 1 mM dbcAMP and the treatment for 24 to 48 hours. […] The synthesis of 20-OH progesterone and progesterone in Y1 and MA-10 cell media respectively were measured by RIA (Brown et al., 1992). H295R human adrenal tumor cells were seeded in 48-well plates at 10^5 cells/well and incubated for 24 hours. […] At the end of the incubation time period, cells were treated with 1 mM dbcAMP for 48 hours. Cortisol levels in the media were determined by radioimmunoassay as previously described (Amri et al., 1996).

The structures appear in SMILES notation.

With `CC1CN(C(=O)C(Cc2c[nH]c3ccccc23)NC(=O)c2ccc([N+](=O)[O-])cc2)CCN1C(=O)C1CC1` (stereo not drawn) [SP010, N-[2-(4-cyclopropanecarbonyl-3-methyl-piperazin-1-yl)-1-(1H-indol-3-yl-methyl)-2-oxo-ethyl]-4-nitro-benzamide], under “1, 10 and 100 iM”, the “efficacy on Y1 adrenocortical cells across concentrations” value is given as “maintained the same efficacy”. Moreover, the “dbcAMP-induced 20á-hydroxyprogesterone production” value (Y1 cells, 1 mM dbcAMP, increasing concentrations) is on record as “decreased in a dose-dependent manner”. Where the note is “even at a concentration as low as 1 μM”, the “potency compared with procaine on cAMP-corticosteroid formation” value was “as potent as procaine”.

For the origin of these results see patent publication US20060194815A1, “Methods and compositions for modulating serum cortisol levels” (priority 2003, published 2006).
